One assay concerns the target T1, 14-3-3 isoform gamma (Homo sapiens, UniProt P61981).
T1 construct: His6; made in house; host or cells: Escherichia coli BL21 Rosetta (DE3)
T1 sequence (P61981 1-247): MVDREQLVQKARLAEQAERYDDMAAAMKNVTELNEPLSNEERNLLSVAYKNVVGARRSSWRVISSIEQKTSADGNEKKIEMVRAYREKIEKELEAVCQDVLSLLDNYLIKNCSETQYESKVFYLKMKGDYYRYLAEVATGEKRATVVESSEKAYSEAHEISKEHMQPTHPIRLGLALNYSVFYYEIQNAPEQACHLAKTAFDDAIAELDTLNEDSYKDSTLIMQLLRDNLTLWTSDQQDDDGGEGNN
Briefly: Label-free microscale thermophoresis (MST) binding, 14-3-3 gamma. To be noted: 0.6 µM 14-3-3 protein, 25 mM MES pH 6.5, 5 mM MgCl2, 5 mM CaCl2, 25°C, Kd from duplicate measurements, aggr. = no successful experiment. How it is done:
(§1) The binding of phosphorylated sirtuin peptides (Fig. 1 ▸) was analyzed using the change in the intrinsic fluorescence signal of the 14-3-3 proteins measured with label-free microscale thermophoresis using a Nanotemper Monolith NT.LabelFree or NT.115. A typical binding experiment using 0.6 µM 14-3-3 protein was performed in a modified MST buffer consisting of 25 mM MES pH 6.5, 5 mM MgCl2, 5 mM CaCl2. The measurements were performed at 25°C using a LED power of 10–40%. All measurements were performed at least in duplicate, and the results shown are representative measurements individually fitted using GraFit 7 (Erathicus Software, Horley, United Kingdom).
Figure 1 Classification and analysis of sirtuin PSSM results for potential 14-3-3 phosphoserine binding sites. Peptides with a gray background were not analyzed experimentally. Score is the overall PSSM score for the phosphorylation site; rank is the order within the 17 proposed sirtuin binding sites. Conserved residues in the 14-3-3 motifs are marked in green. Residues with restricted (proline) or very flexible (glycine) protein backbone or with a very large side chain (tryptophan) are marked in red. Amino acids with the same or similar hydrophobicity/size are shown in magenta. Kd values from duplicate measurements are colored green for Kd < 100 µM. Fields marked in red indicate no binding or no successful experiment. […]
Background: In MST a laser heats a spot of the sample, and binding alters the fluorescence response.

A further assay deals with T2, 14-3-3 isoform epsilon (Homo sapiens, UniProt P62258).
T2 construct: His6; made in house; host or cells: Escherichia coli BL21 Rosetta (DE3)
T2 sequence (P62258 1-255): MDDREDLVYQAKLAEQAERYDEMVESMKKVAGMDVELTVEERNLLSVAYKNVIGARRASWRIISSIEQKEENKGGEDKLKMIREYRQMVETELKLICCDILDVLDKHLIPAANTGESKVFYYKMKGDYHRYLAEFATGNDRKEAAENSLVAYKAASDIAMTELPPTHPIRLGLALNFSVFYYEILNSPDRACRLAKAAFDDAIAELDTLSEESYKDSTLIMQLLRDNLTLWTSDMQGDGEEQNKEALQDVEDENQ
Briefly: Label-free microscale thermophoresis (MST) binding, 14-3-3 epsilon. Conditions: label-free MST, 0.6 µM 14-3-3 protein, 25 mM MES pH 6.5, 5 mM MgCl2, 5 mM CaCl2, 25°C; Kd from duplicate measurements; read-out: Affinity estimates by MicroScale Thermophoresis, 14-3-3 isoform epsilon (Kd). As to the method: as §1
(§2) Figure 1 Classification and analysis of sirtuin PSSM results for potential 14-3-3 phosphoserine binding sites. Peptides with a gray background were not analyzed experimentally. Score is the overall PSSM score for the phosphorylation site; rank is the order within the 17 proposed sirtuin binding sites. Conserved residues in the 14-3-3 motifs are marked in green. Residues with restricted (proline) or very flexible (glycine) protein backbone or with a very large side chain (tryptophan) are marked in red. Amino acids with the same or similar hydrophobicity/size are shown in magenta. Kd values from duplicate measurements are colored green for Kd < 100 µM. Fields marked in red indicate no binding or no successful experiment. TEXT PRINTED IN THE PICTURE: Sirt1 S26: Affinity estimates by MicroScale Thermophoresis [μM], 14-3-3 isoform sigma: none | Sirt1 S670: Affinity estimates by MicroScale Thermophoresis [μM], 14-3-3 isoform gamma: aggr.; Affinity estimates by MicroScale Thermophoresis [μM], 14-3-3 isoform epsilon: > 183; Affinity estimates by MicroScale Thermophoresis [μM], 14-3-3 isoform theta: 93; Affinity estimates by MicroScale Thermophoresis [μM], 14-3-3 isoform sigma: 5 | Sirt3 S103: Affinity estimates by MicroScale Thermophoresis [μM], 14-3-3 isoform gamma: aggr.; Affinity estimates by MicroScale Thermophoresis [μM], 14-3-3 isoform epsilon: > 267; Affinity estimates by MicroScale Thermophoresis [μM], 14-3-3 isoform theta: 52; Affinity estimates by MicroScale Thermophoresis [μM], 14-3-3 isoform sigma: 10 | Sirt3 S103wt: Affinity estimates by MicroScale Thermophoresis [μM], 14-3-3 isoform gamma: aggr.; Affinity estimates by MicroScale Thermophoresis [μM], 14-3-3 isoform theta: none; Affinity estimates by MicroScale Thermophoresis [μM], 14-3-3 isoform sigma: none | Sirt3 S105: Affinity estimates by MicroScale Thermophoresis [μM], 14-3-3 isoform gamma: aggr.; Affinity estimates by MicroScale Thermophoresis [μM], 14-3-3 isoform epsilon: > 215; Affinity estimates by MicroScale Thermophoresis [μM], 14-3-3 isoform theta: 60; Affinity estimates by MicroScale Thermophoresis [μM], 14-3-3 isoform sigma: none | Sirt5 S168: Affinity estimates by MicroScale Thermophoresis [μM], 14-3-3 isoform epsilon: aggr.; Affinity estimates by MicroScale Thermophoresis [μM], 14-3-3 isoform theta: aggr.; Affinity estimates by MicroScale Thermophoresis [μM], 14-3-3 isoform sigma: > 329 | Sirt6 T337: Affinity estimates by MicroScale Thermophoresis [μM], 14-3-3 isoform epsilon: > 420; Affinity estimates by MicroScale Thermophoresis [μM], 14-3-3 isoform sigma: 12 | Sirt6 S338: Affinity estimates by MicroScale Thermophoresis [μM], 14-3-3 isoform epsilon: 19; Affinity estimates by MicroScale Thermophoresis [μM], 14-3-3 isoform sigma: 24 | Sirt7 S136: Affinity estimates by MicroScale Thermophoresis [μM], 14-3-3 isoform epsilon: none; Affinity estimates by MicroScale Thermophoresis [μM], 14-3-3 isoform theta: 30; Affinity estimates by MicroScale Thermophoresis [μM], 14-3-3 isoform sigma: 49

A further assay addresses T3, 14-3-3σ-ΔC (Homo sapiens, UniProt P31947).
T3 construct: His6; made in house; host or cells: Escherichia coli BL21 Rosetta (DE3)
T3 sequence (P31947 1-231 limits assumed): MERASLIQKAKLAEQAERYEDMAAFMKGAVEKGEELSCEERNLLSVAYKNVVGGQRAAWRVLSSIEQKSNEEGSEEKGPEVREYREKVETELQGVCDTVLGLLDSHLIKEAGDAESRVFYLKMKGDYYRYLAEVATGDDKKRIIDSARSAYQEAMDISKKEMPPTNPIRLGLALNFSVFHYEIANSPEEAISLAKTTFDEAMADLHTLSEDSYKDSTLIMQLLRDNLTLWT
In words: Label-free microscale thermophoresis (MST) binding, 14-3-3σ. How it is done:
as §1, §2
For nine of the sites, including sites from all sirtuin isoforms except Sirt4, endecameric phosphopeptides were chemically synthesized for in vitro analysis. […]

Structures are written as SMILES. Where two headings read alike, the source gives them in different places. Where a SMILES comes first, the peptide text is derived from it. [ ]: non-standard residue; d: D form. pS = N[C@@H](COP(=O)(O)O)C(=O)O

In the case of `CC(C)C[C@H](NC(=O)[C@@H](N)C(C)C)C(=O)N[C@@H](CO)C(=O)N[C@@H](CO)C(=O)N[C@@H](CO)C(=O)N[C@@H](COP(=O)(O)O)C(=O)N[C@@H](CS)C(=O)NCC(=O)N[C@@H](CO)C(=O)N[C@@H](CC(N)=O)C(=O)N[C@@H](CO)C(=O)O` [Sirt1^pS670] (H-VLSSS[pS]CGSNS-OH), the “Affinity estimates by MicroScale Thermophoresis, 14-3-3 isoform gamma (Kd)” value at 14-3-3 isoform gamma is “aggr”. For the same compound, the Kd is more than 183 µM on 14-3-3 isoform epsilon; 5 µM on 14-3-3σ-ΔC (Fig. 1, label-free MST, 0.6 µM 14-3-3 protein, 25 mM MES pH 6.5, 5 mM MgCl2, 5 mM CaCl2, 25°C, Kd from duplicate measurements, read-out: Affinity estimates by MicroScale Thermophoresis, 14-3-3 isoform sigma (Kd)); 1.7 ± 1.3 µM on 14-3-3σ-ΔC (Fig. 3a, average of two independent MST experiments, 25°C, MES pH 6.5, read-out: average Kd, MST titration of 14-3-3σ-ΔC).

The record behind these values is publication PMC12809495, “Potential 14-3-3 binding sites in sirtuins reveal extended phosphosite-recognition modes” (Acta Crystallographica Section F: Structural Biology …, 2026).
